Experimental data published in US20240300913A1, “FLAVONE DERIVATIVE AND USE THEREOF FOR IMPROVING PULMONARY FIBROSIS” (A-CHEMBIO CO., LTD, priority 2023, published 2024).

What was measured:
HLF cells [1] = assay: MTT cytotoxicity evaluation in HLF cells; format: cell-based, human; conditions: all treatment concentrations up to 10 μM, incubated for 24, 48, and 72 hours, compared to untreated control
Protocol: (§1) To confirm the effect of novel flavone derivative I on cell viability, human lung fibroblasts (HLF) were used to examine cell viability with MTT [3-(4,5-dimethylthiazol-2-yl)-2,5-diphenyltetrazolium bromide]. After being suspended in a medium, HLF cells were dispensed into a 96-well plate and incubated for 24 hours. […] After incubation, all media was removed, and MTT was diluted (0.5 mg/mL) in phosphate-buffered saline (PBS). Then, 200 μL of the diluted MTT was dispensed into each well, and incubation was performed in a CO2 incubator for 4 hours. After 4 hours, the MTT solution was removed, and 160 μL of dimethyl sulfoxide (DMSO) was dispensed into each well to dissolve the formazan precipitate for 30 minutes. Next, the absorbance was measured at 570 nm.
(§2) Cytotoxicity tests of novel flavone derivative II (Achem II) on A549 cells, HULEC-5a cells, and HLF cells were performed in the same manner as in Example 1 above, using the MTT assay. The results thereof are shown in FIGS. 17 to 19 as cell viability (%) after 24, 48, and 72 hours compared to that of the control group, the untreated sample group.
as §2, with “III” for “II”, “III)” for “II)”, “27” for “17”, “29” for “19”

HLF cells [2] = assay: Effect upon TGF-β1 treatment in HLF cells (western blot of protein levels); format: cell-based, human
Protocol: After suspending 5×10^6 human lung fibroblast (HLF) cells in a medium, […] dispensed into a 100-mm plate, and incubated for 24 hours. […] After 24 and 48 hours of incubation, the cells were lysed with RIPA lysis buffer ([50 mM Tris]-Cl (pH, 7.4), 1% NP-40, 150 mM NaCl, 1 mM EDTA, and 1 mM phenylmethylsulfonyl fluoride (PMSF)) containing MG-132 (10 μM, proteasome inhibitor, protect the HIF-1α subunit from proteasome degradation). Next, only the supernatant was collected by centrifugation (at 13,000 rpm for 7 minutes) at 4° C., and the proteins were separated by SDS-polyacrylamide gel electrophoresis (SDS-PAGE). The separated proteins were transferred to a polyvinylidene difluoride membrane (PVDF membrane), reacted in 5% nonfat dry milk for 2 hours, and then reacted with primary antibodies at 4° C. overnight. After overnight, the proteins further reacted with secondary antibodies corresponding to the respective primary antibodies. Then, the protein band was examined, according to the manufacturer's protocol, using an ECL kit.
The effect of novel flavone derivative II upon TGF-β1 treatment in HLF cells was evaluated in the same manner as in Example 1 above.
The effect of novel flavone derivative III upon TGF-β1 treatment in HLF cells was evaluated in the same manner as in Example 1 above.

HULEC-5a cells [3] = assay: Effect upon TGF-β1 treatment in Hulec-5a cells (western blot of protein levels); format: cell-based, human
Protocol: 1.2×10^6 Hulec-5a cells, derived from pulmonary vessels, were suspended in a medium, dispensed into a 100-mm plate, and incubated for 24 hours. After 24 hours of incubation, each plate was treated with TGF-β1 (10 ng/ml) alone or in combination with novel flavone derivative I at varying concentrations or a predetermined concentration and/or nintedanib (NIDB), a therapeutic drug for idiopathic pulmonary fibrosis and interstitial lung disease. After 3, 24, and 48 hours of incubation, the cells were lysed with RIPA lysis buffer ([50 mM Tris]-Cl (pH, 7.4), 1% NP-40, 150 mM NaCl, 1 mM EDTA, and 1 mM phenylmethylsulfonyl fluoride (PMSF)) containing MG-132 (10 μM, proteasome inhibitor, protect the HIF-1α subunit from proteasome degradation). Next, only the supernatant was collected by centrifugation (at 13,000 rpm for 7 minutes) at 4° C., and the proteins were separated by SDS-polyacrylamide gel electrophoresis (SDS-PAGE). The separated proteins were transferred to a polyvinylidene difluoride membrane (PVDF membrane), reacted in 5% nonfat dry milk for 2 hours, and then reacted with primary antibodies at 4° C. overnight. After overnight, the proteins further reacted with secondary antibodies corresponding to the respective primary antibodies. Then, the protein band was examined, according to the manufacturer's protocol, using an ECL kit.
The effect of novel flavone derivative II upon TGF-β1 treatment in Hulec-5a cells was evaluated in the same manner as in Example 1 above.
The effect of novel flavone derivative III upon TGF-β1 treatment in Hulec-5a cells was evaluated in the same manner as in Example 1 above.

HULEC-5a cells [4] = assay: MTT cytotoxicity evaluation in HULEC-5a cells; format: cell-based, human; conditions: incubated for 24, 48, and 72 hours
Protocol: as §1, with “viability, HULEC-5a,” for “viability,”, “microvascular endothelial cells,” for “fibroblasts (HLF)”, “HULEC-5a” for “HLF”
as §2
as §2, with “III” for “II”, “III)” for “II)”, “27” for “17”, “29” for “19”

A549 cells = assay: Effect upon TGF-β1 treatment in A549 cells (western blot of protein levels); format: cell-based
Protocol: 3.5*10^5 A549 cells, derived from lung cancer, were suspended in a medium, dispensed into a 60-mm plate, and incubated for 48 hours. After 48 hours of incubation, each plate was treated with TGF-β1 (10 ng/ml) alone or in combination with novel flavone derivative I at varying concentrations or a predetermined concentration and/or nintedanib (NIDB), a therapeutic drug for idiopathic pulmonary fibrosis and interstitial lung disease as a positive control. […] Next, only the supernatant was collected by centrifugation (at 14,000 rpm for 10 minutes) at 4° C., and the proteins were separated by SDS-polyacrylamide gel electrophoresis (SDS-PAGE). The separated proteins were transferred to a polyvinylidene difluoride membrane (PVDF membrane), reacted in 5% nonfat dry milk for 3 hours, and then reacted with primary antibodies at 4° C. for 12 hours. After 12 hours, the proteins further reacted with secondary antibodies corresponding to the respective primary antibodies. Then, the protein band was examined, according to the manufacturer's protocol, using an ECL kit.
The effect of novel flavone derivative II upon TGF-β1 treatment in A549 cells was evaluated in the same manner as in Example 1 above. FIGS. 20 and 21 show the results thereof.
The effect of novel flavone derivative III upon TGF-β1 treatment in A549 cells was evaluated in the same manner as in Example 1 above.

With `COc1ccc(-c2c(-c3ccc(O)c(OC)c3)oc3cc(OC)c(OC)cc3c2=O)cc1` [novel flavone derivative II, 2-(4-hydroxy-3-methoxyphenyl)-6,7-dimethoxy-3-(4-methoxyphenyl)-4H-chromen-4-one] the cell viability (HLF cells [1]) was ≥ 80%, the “levels of fibronectin, α-SMA, HIF-1α, and COL1, increased by TGF-β1 treatment” value (HLF cells [2]; TGF-β1 treatment, FIG. 23) was “decreased” and the “levels of fibronectin, COL4, α-SMA, and HIF-1α, increased by TGF-β1 treatment” value (HULEC-5a cells [3]; Hulec-5a cells, TGF-β1 treatment, FIG. 22) was “decreased”. The cell viability (HULEC-5a cells [4]; all treatment concentrations up to 10 μM, compared to untreated control) was ≥ 80% and the “levels of Col3, Col4, fibronectin, and NOX4 proteins, increased by TGF-β treatment” value (A549 cells; 10 ng/mL TGF-β1 and compound, 24 hours, FIGS. 20 and 21) was “decreased”.
`COc1ccc(-c2c(-c3ccc(O)c(O)c3)oc3cc(OC)c(OC)cc3c2=O)cc1` [novel flavone derivative I, 2-(3,4-dihydroxyphenyl)-6,7-dimethoxy-3-(4-methoxyphenyl)-4H-chromen-4-one] was tested, and the cell viability (HLF cells [1]) was ≥ 80%, the “levels of fibrosis-related factors (fibronectin, COL4, α-SMA, and HIF-1α), increased by TGF-β1 treatment” value (HLF cells [2]; 5 ng/mL TGF-β1 and 1 and 3 μM compound, 24 hours, FIG. 10) was “decreased” and the “levels of fibrosis-related factors (Fibronectin, α-SMA, NOX1, NOX2, and NOX4), increased by TGF-β1 treatment” value (HULEC-5a cells [3]; HULEC-5a cells, 10 ng/mL TGF-β1 and/or 5 μM compound, 3, 24, and 48 hours, FIG. 9) was “decreased”. For the same compound, the cytotoxicity (HULEC-5a cells [4]; treatment concentrations of up to 5 μM, MTT) was “No cytotoxicity was observed”, the “levels of fibronectin, HIF-1α, NOX2, NOX4, vimentin, p-EGFR, EGFR, and p-AKT proteins, increased by TGF-β1 treatment” value (A549 cells; 10 ng/mL TGF-β1 and 5 μM compound, 24 hours, FIG. 7) was “decreased” and the “levels of fibronectin, HIF-1α, and p-c-Src proteins, increased by TGF-β1 treatment” value (A549 cells; 10 ng/mL TGF-β1 and 5 μM compound, 48 hours, FIG. 8) was “decreased”.
